From US7667070B2, “Lipophilic compounds and uses thereof” (Centre National de la Recherche Scientifique (CNRS), priority 2002, dated 2010)

Legend:
mice's lungs = assay: In vivo transfection of luciferase plasmid DNA complexed with cationic lipid (luciferase in lungs, RLU); set-up: species or system mice of the Swiss lineage; conditions: mouse, 50 μg plasmid DNA as lipid/DNA complex; alone or with DOPE or cholesterol; FIG. 6
Method: Cationic lipid/DNA complexes are prepared according to a charge (+/−) ratio of 4 and are administered to six week old mice of the Swiss lineage through one single injection into the caudal vein. Each animal receives a volume of 200 μl of a solution of the tested lipid/DNA complex, corresponding to 50 μg plasmid DNA coding the luciferase protein.
The animals are sacrificed 24 hours after the injection and each organ of interest id deep frozen in liquid nitrogen and then stored at a temperature of −70° C.
The deep frozen tissues are ground with steel balls in a 2 ml round bottom tube of the Epperdorf type using a device of the Mill MM300 mixer type (marketed by QIAGEN Company; reference: 0030120-094).
The extraction of the proteins from each tissue is performed by incubating the ground tissues in a PLB lysis buffer (Promega) followed by a centrifugation at 10,000 g, 10 min at 4° C. […]
Parallelly, the total protein concentration is measured using the <<Coomassie Plus Reagent Assay Kit>> (marketed by Pierce Company). […]
A comparative study of different cationic lipids is conducted by varying the linking part (Group R^3) between the hydrophobic domain and the hydrophilic domain, in mouse. Each lipid is evaluated separately or in admixture with the DOPE compound or cholesterol, used as co-lipids, as described in the <<Material and Methods>> section.

[1] = system: K 562, Jurkat, Daudi, HeLa, CFPAC cells; assay: Determination of the cell toxicity of lipid/DNA complexes (CYTOLITE chemiluminescent test, toxicity index); assay type: cell-based; conditions: 48 hours after transfection; non transfected cells as controls
Method: The relative cytotoxicity of the different cationic phosphonolipid/DNA complexes is determined as a representation of the number of living cells after the transfection experiment, measured by using a chemiluminescent test, the CYTOLITE® test (marketed by PACKARD Company, France) following the manufacturer's recommendations.
The cell transfection is conducted following the procedure described in the above Section A.3.
On the day of the transfection, cells are seeded in 24-well plate wells at a level of: • 500,000 cells per well for the non adherent cell lineages (K 562. Jurkat, Daudi); and • 150,000 cells per well for the adherent cell lineages (HeLa, CFPAC cells in primary culture).
The cells are treated for the transfection as described hereinabove and incubated for another period of 48 hours.
After incubation, the cytotoxicity test is conducted following the manufacturer's recommendations.
The amount of relative light units (RLU for <<Relative light units>>) being formed is proportional to the number of living cells.
The non transfected cells are used as controls.
The final results are expressed following a toxicity index. The toxicity index represents the ratio between the number of living cells in the control cultures (without cationic lipids/DNA complex) and the number of living cells in the culture wells containing the transfected cells.

SMILES	in vivo transfection efficiency (luciferase amount found in lungs) (mice's lungs)	cytotoxicity (toxicity index: living cells in control cultures / living cells in transfected cultures) [1]
CCCCCCCC/C=C\CCCCCCCCOP(=O)(NCCC[P+](C)(C)C)OCCCCCCCC/C=C\CCCCCCCC.[I-] [KLN20, dioleyl 3-(trimethylphosphonio)propylamidophosphate iodide]	most efficient	
CCCCCCCCCCCCCCOP(=O)(OCCCCCCCCCCCCCC)N(C)CCC[N+](C)(C)C.[I-] [KLN 5, 3-[[bis(tetradecyloxy)phosphoryl](methyl)amino]-N.N.N-trimethyl-propanaminium iodide]		does not show any toxicity
